One data set deals with SUM149 cells. Description: Colony formation (clonogenic) assay, SUM149. The class given is cell-based, Human. Conditions: 10 μM. The procedure: Further evaluation of various promising compounds using breast cancer cells included analysis of colony-forming inhibition capabilities and investigations into their specific mechanistic pathways of action. Thus, the anchorage-dependent colony formation assay, also known as the clonogenic assay, was conducted. This method in cancer research evaluates the ability of single cells to grow into colonies when attached to a surface and can measure a cell’s ability to undergo “unlimited” division and form a colony (usually defined as ≥50 cells).
The clonogenic assay offers comprehensive insights into the compound’s overall efficacy and is regarded as the definitive method for assessing post-treatment reproductive cell death (both cytotoxic and cytostatic effects). The extended duration of the experiment simultaneously provides valuable data on the compounds’ stability over time, which are not detected in short-term viability assays. […] In the MDA-MB231 cellular model (Figure 3), the evaluated compounds successfully eliminated the cells’ capacity to establish colonies (for images, see Figures S3 and S4).
MDA-MB-231 (0.8 × 10^6 cells/well) and SUM-149 cells (1.5 × 10^6 cells/well) were plated on a 6-well plate. Two days later, cell media was changed to 5% FBS, and cells were incubated at 37 °C in a 5% CO2 atmosphere for 1 h before the vehicle (0.1% DMSO) or compound (5–10μM) was added. After 72 h of treatment, cells were trypsinized and reseeded at 800 cells/mL (MDA-MB231) and 1200 cells/mL (SUM149) per well in 6-well plates. After 10 days of culture, the media was removed from the wells and washed once with cold PBS. The colonies were stained with 5 mL of 1% Crystal Violet for 30 min. The dishes were fixed by methanol, rinsed with water three times, and air-dried, and the colonies were counted using ImageJ version 1.5.4 (NIH, Bethesda, MD, USA).

For the next data set, the system named is MDA-MB231. The note with it: cited from earlier work; for TI (therapeutic index) MDA-MB231: EC50 BJ fibroblasts / EC50 MDA-MB231; for IC50: read-out: Cytotoxicity IC50, MDA-MB231, 72 h incubation, CellTiter-Glo, mean ± SD. (In general: In ATP-based viability assays light output follows the ATP content of the culture.)
A further data set has as its system human BJ fibroblasts. Conditions: read-out: Cytotoxicity IC50, BJ; non-neoplastic human BJ fibroblasts, 72 h, CellTiter-Glo, mean ± SD; cited from earlier work.
Another data set deals with MCF07. Conditions: cited from earlier work; for TI (therapeutic index) MCF07: EC50 BJ fibroblasts / EC50 MCF07; for IC50: read-out: Cytotoxicity IC50, MCF07, 72 h incubation, CellTiter-Glo, mean ± SD.
The next data set relates to SUM149. The note with it: cited from earlier work; for IC50: read-out: Cytotoxicity IC50, SUM149, 72 h incubation, CellTiter-Glo, mean ± SD.
The test system of data set [1] is MDA-MB231 breast cancer cells. Description: Cell morphology by brightfield microscopy. It is filed as cell-based, Human. Conditions: 24 h treatment, brightfield 10×; 1 and 6 at 5 μM, 10 at 10 μM. The text has this:
Brightfield microscopy images of MDA-MB231 breast cancer cells are indicated in Figure 6 to highlight the morphological changes that occur upon treatment with compounds 1, 6, and 10 as representative compounds. […] The precise mechanism of cell death for other compounds remained unclear.
Representative images were collected using 10× objective with a Leica DMi1 Microscope (Leica microsystems, Wetzlar, Germany). MDA-MB231 cells were imaged with a vehicle as the negative control, staurosporine as the positive control (2 μM), or compounds with results shown in representative images for 24 h.

The test system of data set [2] is several breast cancer cell lines. Details: method as in PMID 36831660. Conditions: range over the named compounds and cell lines (Table 1); cited from earlier work.

The source of these data is paper PMC12195677, “In Vitro Effect of Ferruginol, Tanshinone, and Carnosol Analogues on the Proliferation of Three Breast Cancer Cell Lines” (Molecules, 2025).

Usually IC50 stands for the point on the concentration scale where inhibition reaches its midpoint. For the compound `CC(C)c1cc2c(cc1O)[C@@]1(C)CCCC(C)(C)[C@@H]1CC2` [Compound 1, ferruginol], in the data set with SUM149 cells, the “Colony-forming ability of SUM149 cells” value was “notable exceptions”. The “TI (therapeutic index) MDA-MB231” value in the data set with MDA-MB231 was over 6. Also, the IC50 in the data set on MDA-MB231 is 8.3 ± 1.4 µM; in the data set with human BJ fibroblasts, over 50 µM; in the data set on MCF07, 19 ± 1.5 µM; with SUM149, over 50 µM. The “TI (therapeutic index) MCF07” value in the data set with MCF07 is listed as over 3. For the same compound, the “Morphological changes (early apoptosis)” value in data set [1] is recorded as “Membrane blebbing”.

Consider `CC(C)C1=CC2=C(C(=O)C1=O)[C@@]1(C)CCC[C@@](C)(CN3C(=O)c4ccccc4C3=O)[C@@H]1CC2` [Compound 10], for which, in the data set on SUM149 cells, the “Colony-forming ability of SUM149 cells” value is given as “notable exceptions”. Also, the “TI (therapeutic index) MDA-MB231” value with MDA-MB231 is 13. Moreover, the IC50 is 2.8 ± 0.4 µM in the data set with MDA-MB231, 35.4 ± 5 µM with human BJ fibroblasts, 2.3 ± 1.1 µM in the data set with MCF07 and 1.5 ± 0.4 µM with SUM149. For the same compound, the therapeutic index range in data set [2] was 6–43. Besides, the “TI (therapeutic index) MCF07” value with MCF07 is 15. Also, the “TI (therapeutic index) SUM149” value with SUM149 (EC50 BJ fibroblasts / EC50 SUM149) is listed as 24. Further, in the data set on SUM149 (conclusions, Table 1 values of these compounds ref 13), the “Effectiveness against SUM149 cell line (in words)” value is “notable effectiveness”. Also, the “Morphological changes (early apoptosis)” value in data set [1] is “Membrane blebbing”.
